Data published in US7947280B2 (priority 2003, dated 2011).
Values joined by “and” are separate entries in the source; they are usually repeats but may differ in a detail not shown here. Identical values can stand only once. “Also recorded” adds a separate entry of the source.

What was measured:
isolated rat heart = settings: Szokodi et al; cited from earlier work
C57B1/6 mice = tested on: C57B1/6 mice
Experimental: Pressure-volume hemodynamics. Pressure-volume hemodynamics were assessed using the Aria System (Millar Instruments, Houston, Tex.). Male C57B1/6 mice aged 8-12 weeks (n=10) were anesthetized with 1-2% isoflurane in oxygen. The internal jugular vein was cannulated with PE tubing and a 10% albumin solution infused at 5 μl/min following a bolus of 150 μl over 5 minutes. After tracheotomy, a 19G cannula was inserted into the trachea and the animal was ventilated at a tidal volume of 200 μl at 100 breaths per minute (Harvard Apparatus, Holliston, Mass.). Mice were warmed throughout the procedure and constantly monitored for depth of anesthesia. Following an incision just dorsal to the xyphoid cartilage, the diaphragm was visualized from below, and after diaphragmatic incision, the left ventricular apex was visualized. The pressure-volume catheter was then inserted along the long axis of the left ventricle, from where it was adjusted to obtain rectangular shaped pressure-volume loops. Appropriate position was verified post mortem (FIG. 1, Panel D). […] Signals from the catheter were digitized using the Powerlab system (ADInstruments, Colorado Springs, Colo.) and stored for offline analysis using the PVAN software (Pressure-volume ANalysis, Millar Instruments, Houston, Tex.).
Data Analysis. Data were analyzed using Student's t statistic (paired) or the repeated measures analysis of variance using the post hoc comparison of Fisher (NCSS 2002). Exact p values are reported for all comparisons.

[1] = tested on: AT1R and APJ heterodimerization; test: AT1R-APJ receptor heterodimerization by immunoprecipitation; format: cell-based; settings: addition of apelin
Experimental: (§1) Cells were immediately lysed.
Immunoprecipitation and Western Blotting Immunoprecipitation was performed as previously described (REF). In brief, cells were lysed using 10× Cell Lysis Buffer (Cell Signaling Technologies CITY). Lysates were precleared with protein G and immunoprecipitation was performed with the respective antibodies at concentration of 1 mg/mL for 24 hrs at 4C. Protein G agarose was added and incubated for additional 2 hours. Western blotting on SDS-PAGE gels were performed as previously described, and the bands were visualized using the enhanced chemiluminescence system (Amersham Biosciences).

[2] = tested on: mice with experimentally induced heart failure; settings: Pyr-apelin-13 2 mg/kg/day; between weeks 1 and 3; n=6
Experimental: Left anterior decending artery ligation. Animals were anesthetized with 2-3% inhalational isofluorane and 50 mg/kg sodium pentobarbital intraperitoneally. […] The animals were placed in the left lateral decubitus position and a thoracotomy performed at the 4th intercostal space. Peak inspiratory pressures were monitored and maintained between 10-14 cm of water. The lung was retracted and the pericardium incised. The left coronary artery was ligated with a 7-0 prolene suture until blanching of the distal left ventricle was noted. Heart rate and temperature were monitored during the procedure. After ascertaining complete hemostasis, the chest wall was closed in four layers. The animals were weaned from the ventilator and anesthetic and then extubated and monitored in the recovery area.
Treadmill exercise. […] In mice, a commonly used commercially available setup (Columbus Instruments) employs a moving belt encased in a sealed Plexiglas enclosure, allowing for measurement of oxygen consumption and carbon dioxide production. Stimulus devices consist of a metal shock grid. Metabolic measurements are performed using an open circuit volumetric gas analysis system (Oxymax System; Columbus Instruments). The low dead space of this circuit allows quick gas equilibration with a t1/2 of 30 s, which is highly suitable for use during graded exercise protocols. […]

rats = settings: intravenous bolus injection in rats; Tatemoto et al., Lee et al.; cited from earlier work
[3] = tested on: NFκB, NFAT, AP-1 and SRE reporter constructs; test: Luciferase reporter assays of AngII nuclear signaling in HEK-293 cells; format: cell-based
Excerpt: cDNA Constructs APJ expression construct was purchased from cDNA.org. AT1R construct was obtained from Dr. Marc Caron. AT1R transcript was inserted into a pEGFP-N1 vector (Clonetech). The NF-kB and SRE luciferase reporter constructs were obtained from BD Biosciences.
as §1

AT1R = target: T1, AT1R (Rattus norvegicus, UniProt P25095); test: Competitive ligand binding with FAM-labeled AngII in HEK-293 cells; settings: unlabeled ligand 100 nM; HEK-293 cells transfected with AT1R
T1 construct: expressed in transfected cells; host or cells: HEK-293
T1 sequence (P25095 1-359): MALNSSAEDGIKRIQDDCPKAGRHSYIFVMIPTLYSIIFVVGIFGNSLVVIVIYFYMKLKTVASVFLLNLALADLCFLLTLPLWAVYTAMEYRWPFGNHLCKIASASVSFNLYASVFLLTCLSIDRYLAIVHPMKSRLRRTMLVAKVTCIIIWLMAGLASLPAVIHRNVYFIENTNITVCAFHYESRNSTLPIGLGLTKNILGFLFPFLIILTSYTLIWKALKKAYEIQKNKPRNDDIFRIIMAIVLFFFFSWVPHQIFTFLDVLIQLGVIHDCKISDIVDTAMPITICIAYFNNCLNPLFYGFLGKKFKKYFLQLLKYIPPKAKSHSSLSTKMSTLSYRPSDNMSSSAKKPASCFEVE

[4] = tested on: isolated human saphenous vein; settings: Katugampola et al.; cited from earlier work
[5] = tested on: Erk1/2 phosphorylation in HEK293 cells expressing AT1R; settings: AngII, 5 and 15 minute timepoints
Experimental: Cell Culture, Transfections, and Stimulation Assays HEK293 cells were cultured in Dulbecco's modified Eagle's medium with 10% fetal bovine serum, 10 units/ml penicillin, and 100 μg/ml streptomycin. Transient transfection of the HEK293 cells was carried out using FuGene reagent per manufacturer's protocols in 6 well plates (Roche). […] For ERK phosphorylation, transfected HEK293 cells were serum starved for 3 hours and incubated with the agonist for designated times at 37 C. Cells were immediately lysed.

ApoE-KO mice = test: Vein graft neointimal hyperplasia model; format: in vivo, mouse
Experimental: Animals. Mice were maintained in temperature-controlled (20° C. to 22° C.) environment with a 12-hour light-dark cycle. Sterile water and standard chow diet were available ad libitum. All mice were C57BL/6J ApoE-KO male mice (Jackson Laboratories, Bar Harbor, […].) between the ages of 8-12 weeks. […] Animal procedures were carried out in accordance with the Institutional Review Board Guidelines at Stanford University.

[6] = post 100 nM Apelin-12 infused at 5 μl/min for 20 minutes

Substance: apelin
- EC50, contractility of the isolated rat heart (isolated rat heart): low picomolar range
- Time constants of relaxation (C57B1/6 mice; after apelin infusion): not different
- slope and intercept of linear fit of end diastolic pressure-volume relationship (C57B1/6 mice; after apelin infusion): not different
- Arterial elastance (C57B1/6 mice; following apelin infusion): did not change significantly
- dP/dtmax (C57B1/6 mice; following apelin infusion): did not change
- end systolic pressure (C57B1/6 mice; following apelin infusion): reduced
- EDV mean (C57B1/6 mice; [6]): 26.2
- Emax (time varying elastance) (C57B1/6 mice; [6]): 12.7±3.1 and 12.7
- HR mean (C57B1/6 mice; [6]): 353
- PRSW intercept mean (C57B1/6 mice; [6]): 11.3
- LV end diastolic volume (C57B1/6 mice; post apelin infusion): 26.2±5.9 RVU
- constant k1 of monoexponential fit LVEDP=k1*exp(k2*LVEDV) (C57B1/6 mice; post apelin infusion): 0.111±0.002
- exponential k2 of monoexponential fit LVEDP=k1*exp(k2*LVEDV) (C57B1/6 mice; post apelin infusion): 0.69±0.41
- heart rate (C57B1/6 mice; post apelin infusion, invasive study): 353±33 bpm
- AngII induced receptor heterodimerization [1]: did not affect
- average time to exhaustion / exercise capacity [2]: marked, statistically significant increase
- mean arterial pressure (rats): decrease
- NFκB reporter activation stimulated by TNF-α and H2O2 ([3]; apelin treatment): In neither case did apelin diminish transcription; also recorded: not affected
- AngII induced increase in reporter transcription ([3]; cells also treated with apelin): abrogated; also recorded: decreased activation
- competition for binding of FAM-AngII (10 nM) to AT1R (AT1R): did not compete; also recorded: could not compete; also recorded: does not compete
- effect on isolated human saphenous vein [4]: potently contracts
- phosphorylation of Erk1/2 [5]: dramatically reduced
- reduction of mean vessel wall area (ApoE-KO mice; apelin added to AngII treated animals): 34%
- reduction of mean vessel wall area vs saline treated controls (ApoE-KO mice; apelin, 4 weeks following vein graft surgery): 42%
